Assay results as given in patent US10538555B2, “Macrocyclic inhibitors of the PD-1/PD-L1 and CD80(B7-1)/PD-L1 protein/protein interactions” (BRISTOL-MYERS SQUIBB COMPANY, priority 2014, dated 2020).
*1 amine or outer side, *2 acyl side, *3 side chain or, on linkers, in order; H or OH if unused. Where a SMILES comes first, the peptide text is derived from it. Bridges are numbered along the chain shown (N, C = ends). [ ]: non-standard residue; d: D form. ξ: configuration not given here. Trp(1-CH2COOH) = N[C@@H](Cc1cn(CC(=O)O)c2ccccc12)C(=O)O; Phe(3,4,5-F3) = N[C@@H](Cc1cc(F)c(F)c(F)c1)C(=O)O; NMePhe(4-Me) = CN[C@@H](Cc1ccc(C)cc1)C(=O)O; Phe(4-F) = N[C@@H](Cc1ccc(F)cc1)C(=O)O; d(cisHyp) = O=C(O)[C@H]1C[C@@H](O)CN1; Bta = N[C@@H](Cc1csc2ccccc12)C(=O)O; ξPro(4R-OH) = O=C(O)C1C[C@@H](O)CN1; Hyp = O=C(O)[C@@H]1C[C@@H](O)CN1; NMeF = CN[C@@H](Cc1ccccc1)C(=O)O; X1 = O=C([C@H]1COCCN1[*:1])[*:2]; dHyp = O=C(O)[C@H]1C[C@H](O)CN1; Aad = N[C@@H](CCCC(=O)O)C(=O)O; NMeNle = CCCC[C@H](NC)C(=O)O; NMeV = CN[C@H](C(=O)O)C(C)C; hSer = N[C@@H](CCO)C(=O)O; ξR = N=C(N)NCCCC(N)C(=O)O; NMeA = CN[C@@H](C)C(=O)O; Orn = NCCC[C@H](N)C(=O)O; dThz = O=C(O)[C@H]1CSCN1; Dap = NC[C@H](N)C(=O)O; ξC = NC(CS)C(=O)O

These molecules were tested against T1, Human PD-L1/PD-1 (Homo sapiens, UniProt Q9NZQ7) (assay: HTRF Human PD-L1/PD-1 binding assay (PD-1-Ig/PD-L1-His)). Conditions: PD-L1-His 10 nM, PD-1-Ig 20 nM; class symbol; read-out: HTRF Human PD-L1/PD-1 Binding Assay IC50 Range.
T1 construct: TVMV protease cleavage site (C); made in house; host or cells: HEK293T cells
T1 sequence (Q9NZQ7 with tags, fused parts or gaps): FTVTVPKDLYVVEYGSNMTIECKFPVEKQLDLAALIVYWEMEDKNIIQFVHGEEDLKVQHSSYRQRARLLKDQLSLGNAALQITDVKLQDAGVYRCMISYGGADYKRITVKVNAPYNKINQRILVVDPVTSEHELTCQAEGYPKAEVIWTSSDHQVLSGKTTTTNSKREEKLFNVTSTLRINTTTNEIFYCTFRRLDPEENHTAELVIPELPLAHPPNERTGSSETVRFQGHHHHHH
Method in brief: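 HTRF read-out (665/620 nm ratio) after 30 min equilibration with Eu-cryptate anti-Ig mAb (1 nM) and APC anti-His mAb (20 nM). Peptides preincubated 15 min with PD-L1-His (10 nM), then PD-1-Ig (20 nM) added for 15 min.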

Row | IC50 [nM] | Compound
1 | 10 to 99.9 | CCCC[C@H]1C(=O)N(C)[C@@H](CCCC)C(=O)NC(CCCNC(=N)N)C(=O)N[C@H](C(=O)NCC(N)=O)CCCC(=O)N[C@@H](Cc2ccc(O)cc2)C(=O)N(C)[C@@H](C)C(=O)N[C@@H](CC(N)=O)C(=O)N2CCC[C@H]2C(=O)N[C@@H](CN)C(=O)N[C@@H](CC(C)C)C(=O)N2C[C@H](O)CC2C(=O)N[C@@H](Cc2c[nH]c3ccccc23)C(=O)N[C@@H](CO)C(=O)N[C@@H](Cc2c[nH]c3ccccc23)C(=O)N1C (stereo partly drawn) [Example 7067] (Y[NMeA]NP[Dap]L[ξPro(4R-OH)]WSW[NMeNle][NMeNle][ξR][Aad]G-NH2; lactam N-14)
2 | 10 to 99.9 | CCCC[C@H]1C(=O)N2CCOC[C@@H]2C(=O)N[C@@H](CC(=O)O)C(=O)N[C@@H](C(C)C)C(=O)N(C)[C@@H](Cc2ccccc2)C(=O)N[C@@H](CCC(=O)O)C(=O)N2CCC[C@@H]2C(=O)N[C@@H](Cc2c[nH]c3ccccc23)C(=O)N[C@@H](Cc2ccc(O)cc2)C(=O)N[C@@H](CCOC)C(=O)N[C@H](C(=O)NCC(N)=O)CSCC(=O)N[C@@H](Cc2cc(F)c(F)c(F)c2)C(=O)N(C)[C@@H](Cc2ccccc2)C(=O)N1C [Example 10192] ({CH2CO}-[Phe(3,4,5-F3)][NMeF][NMeNle][X1]DV[NMeF]E[dP]WY[hSer](Me)CG-NH2; thioether N-13)
3 | 1 to 9.9 | CCCC[C@H]1C(=O)N(C)[C@@H](CCCC)C(=O)N[C@@H](CCC(=O)O)C(=O)N[C@H](C(=O)NCC(N)=O)CSCC(=O)N[C@@H](Cc2ccc(O)cc2)C(=O)N(C)[C@@H](C)C(=O)N[C@@H](CC(=O)O)C(=O)N2CCC[C@H]2C(=O)N[C@@H](Cc2cnc[nH]2)C(=O)N[C@@H](CCC(N)=O)C(=O)N2C[C@H](O)C[C@H]2C(=O)N[C@@H](Cc2c[nH]c3ccccc23)C(=O)N[C@@H](CO)C(=O)N[C@@H](Cc2cn(CC(=O)O)c3ccccc23)C(=O)N1C [Example 6335] ({CH2CO}-Y[NMeA]DPHQ[Hyp]WS[Trp(1-CH2COOH)][NMeNle][NMeNle]ECG-NH2; thioether N-14)
4 | 100 to 990 | CCCC[C@H]1C(=O)N2C[C@@H](O)C[C@@H]2C(=O)N[C@@H](CC(=O)O)C(=O)N[C@@H](C(C)C)C(=O)N(C)[C@@H](Cc2ccc(C)cc2)C(=O)N[C@@H](CCC(=O)O)C(=O)N2CCC[C@@H]2C(=O)N[C@@H](Cc2c[nH]c3ccccc23)C(=O)N[C@@H](Cc2ccc(O)cc2)C(=O)N[C@@H](CC(C)C)C(=O)N[C@H](C(=O)NCC(N)=O)CSCC(=O)N[C@@H](Cc2cc(F)c(F)c(F)c2)C(=O)N(C)[C@@H](Cc2ccccc2)C(=O)N1C [Example 10117] ({CH2CO}-[Phe(3,4,5-F3)][NMeF][NMeNle][dHyp]DV[NMePhe(4-Me)]E[dP]WYLCG-NH2; thioether N-13)
5 | 10 to 99.9 | CCCC[C@H]1C(=O)N2CCC[C@@H]2C(=O)N[C@@H](CO)C(=O)N[C@@H](C(C)C)C(=O)N(C)[C@@H](Cc2ccccc2)C(=O)N[C@@H](Cc2ccc(O)cc2)C(=O)N2CSC[C@@H]2C(=O)N[C@@H](Cc2c[nH]c3ccccc23)C(=O)N[C@@H](Cc2ccc(O)cc2)C(=O)N[C@@H](CC(C)C)C(=O)N[C@H](C(=O)NCC(N)=O)CSCC(=O)N[C@@H](Cc2ccccc2)C(=O)N(C)[C@@H](Cc2ccccc2)C(=O)N1C [Example 10070] ({CH2CO}-F[NMeF][NMeNle][dP]SV[NMeF]Y[dThz]WYLCG-NH2; thioether N-13)
6 | 1 to 9.9 | CCCC[C@H]1C(=O)N2C[C@H](O)C[C@@H]2C(=O)N[C@@H](CC(=O)O)C(=O)N[C@@H](C(C)C)C(=O)N(C)[C@@H](Cc2ccccc2)C(=O)N[C@@H](Cc2ccc(O)cc2)C(=O)N2C[C@H](O)C[C@@H]2C(=O)N[C@@H](Cc2c[nH]c3ccccc23)C(=O)N[C@@H](Cc2ccc(O)cc2)C(=O)N[C@@H](CCCN)C(=O)N[C@H](C(=O)NCC(N)=O)CSCC(=O)N[C@@H](Cc2cc(F)c(F)c(F)c2)C(=O)N(C)[C@@H](Cc2ccccc2)C(=O)N1C [Example 9323] ({CH2CO}-[Phe(3,4,5-F3)][NMeF][NMeNle][d(cisHyp)]DV[NMeF]Y[d(cisHyp)]WY[Orn]CG-NH2; thioether N-13)

Continued, molecule first:

Row | Compound | IC50 [nM]
7 | CCCC[C@H]1C(=O)N2C[C@H](O)C[C@@H]2C(=O)N[C@@H](CC(=O)O)C(=O)N[C@@H](C(C)C)C(=O)N(C)[C@@H](Cc2ccccc2)C(=O)N[C@@H](CCCN)C(=O)N2CCOC[C@@H]2C(=O)N[C@@H](Cc2c[nH]c3ccccc23)C(=O)N[C@@H](Cc2ccc(O)cc2)C(=O)N[C@@H](CCOC)C(=O)N[C@H](C(=O)NCC(N)=O)CSCC(=O)N[C@@H](Cc2cc(F)c(F)c(F)c2)C(=O)N(C)[C@@H](Cc2ccccc2)C(=O)N1C [Example 10162] ({CH2CO}-[Phe(3,4,5-F3)][NMeF][NMeNle][d(cisHyp)]DV[NMeF][Orn][X1]WY[hSer](Me)CG-NH2; thioether N-13) | 1 to 9.9
8 | CCCC[C@H]1C(=O)N(C)[C@@H](CCCC)C(=O)N[C@@H](CCCNC(=N)N)C(=O)N[C@H](C(=O)NCC(N)=O)CSCC(=O)N[C@@H](Cc2ccc(F)cc2)C(=O)N(C)[C@@H](C)C(=O)N[C@@H](CC(N)=O)C(=O)N2CCC[C@H]2C(=O)N[C@@H](Cc2cnc[nH]2)C(=O)N[C@@H](CCC(=O)O)C(=O)N2C[C@H](O)C[C@H]2C(=O)N[C@@H](Cc2c[nH]c3ccccc23)C(=O)N[C@@H](CO)C(=O)N[C@@H](Cc2c[nH]c3ccccc23)C(=O)N1C [Example 7082] ({CH2CO}-[Phe(4-F)][NMeA]NPHE[Hyp]WSW[NMeNle][NMeNle]RCG-NH2; thioether N-14) | 1 to 9.9
9 | CCCC[C@H]1C(=O)N(C)[C@@H](C)C(=O)N[C@@H](CCCNC(=N)N)C(=O)NC(C(=O)N[C@@H](CO)C(N)=O)CSCC(=O)N[C@@H](Cc2ccc(O)cc2)C(=O)N(C)[C@@H](C)C(=O)N[C@@H](CC(N)=O)C(=O)N2CCC[C@H]2C(=O)N[C@@H](CO)C(=O)N[C@H](CC(C)C)C(=O)N2C[C@H](O)C[C@H]2C(=O)N[C@@H](Cc2c[nH]c3ccccc23)C(=O)N[C@@H](CO)C(=O)N[C@@H](Cc2csc3ccccc23)C(=O)N1C (stereo partly drawn) [Example 9124] ({CH2CO}-Y[NMeA]NPS[dL][Hyp]WS[Bta][NMeNle][NMeA]R[ξC]S-NH2; thioether N-14) | 10 to 99.9
10 | CCCC[C@H]1C(=O)N2CCC[C@@H]2C(=O)N[C@@H](CC(=O)O)C(=O)N[C@@H](C)C(=O)N(C)[C@@H](Cc2ccccc2)C(=O)N[C@@H](Cc2ccc(O)cc2)C(=O)N2CSC[C@@H]2C(=O)N[C@@H](Cc2c[nH]c3ccccc23)C(=O)N[C@@H](Cc2ccc(O)cc2)C(=O)N[C@@H](CC(C)C)C(=O)N[C@H](C(=O)NCC(N)=O)CSCC(=O)N[C@@H](Cc2ccccc2)C(=O)N(C)[C@@H](Cc2ccccc2)C(=O)N1C [Example 10088] ({CH2CO}-F[NMeF][NMeNle][dP]DA[NMeF]Y[dThz]WYLCG-NH2; thioether N-13) | 10 to 99.9
11 | CCCC[C@H]1C(=O)N2CCC[C@@H]2C(=O)N[C@@H](CC(=O)O)C(=O)N[C@@H](C(C)C)C(=O)N(C)[C@@H](C(C)C)C(=O)N[C@@H](Cc2ccc(O)cc2)C(=O)N2CCC[C@@H]2C(=O)N[C@@H](Cc2c[nH]c3ccccc23)C(=O)N[C@@H](Cc2ccc(O)cc2)C(=O)N[C@@H](CCCN)C(=O)N[C@H](C(=O)NCC(N)=O)CSCC(=O)N[C@@H](Cc2ccc(F)cc2)C(=O)N(C)[C@@H](Cc2ccccc2)C(=O)N1C [Example 9243] ({CH2CO}-[Phe(4-F)][NMeF][NMeNle][dP]DV[NMeV]Y[dP]WY[Orn]CG-NH2; thioether N-13) | 1000 to 10000
